# Measurements as given in PMC5122408, “High throughput chemical library screening identifies a novel p110-δ inhibitor that potentiates the anti-myeloma effect of bortezomib” (Oncotarget, 2016).
# Columns and labels:
# PDGFR = system: PDGFR; design: method as in PMID 20959606; details: Other Clinically-relevant Kinases; cited from earlier work
# p110-β = p110-β (Homo sapiens, UniProt P42338); design: method as in PMID 20959606; details: Class I PI3Ks; cited from earlier work
# CLL cells = experiment: XTT viability, CLL cells (DT97 vs idelalisib); assay type: cell-based; details: 1 uM, 72 h, XTT assay
# p110-δ = p110-δ (Homo sapiens, UniProt O00329); design: method as in PMID 20959606; key to the marks not given beside the values; details: Class I PI3Ks; cited from earlier work
# p110-δ, sequence (O00329 whole entry): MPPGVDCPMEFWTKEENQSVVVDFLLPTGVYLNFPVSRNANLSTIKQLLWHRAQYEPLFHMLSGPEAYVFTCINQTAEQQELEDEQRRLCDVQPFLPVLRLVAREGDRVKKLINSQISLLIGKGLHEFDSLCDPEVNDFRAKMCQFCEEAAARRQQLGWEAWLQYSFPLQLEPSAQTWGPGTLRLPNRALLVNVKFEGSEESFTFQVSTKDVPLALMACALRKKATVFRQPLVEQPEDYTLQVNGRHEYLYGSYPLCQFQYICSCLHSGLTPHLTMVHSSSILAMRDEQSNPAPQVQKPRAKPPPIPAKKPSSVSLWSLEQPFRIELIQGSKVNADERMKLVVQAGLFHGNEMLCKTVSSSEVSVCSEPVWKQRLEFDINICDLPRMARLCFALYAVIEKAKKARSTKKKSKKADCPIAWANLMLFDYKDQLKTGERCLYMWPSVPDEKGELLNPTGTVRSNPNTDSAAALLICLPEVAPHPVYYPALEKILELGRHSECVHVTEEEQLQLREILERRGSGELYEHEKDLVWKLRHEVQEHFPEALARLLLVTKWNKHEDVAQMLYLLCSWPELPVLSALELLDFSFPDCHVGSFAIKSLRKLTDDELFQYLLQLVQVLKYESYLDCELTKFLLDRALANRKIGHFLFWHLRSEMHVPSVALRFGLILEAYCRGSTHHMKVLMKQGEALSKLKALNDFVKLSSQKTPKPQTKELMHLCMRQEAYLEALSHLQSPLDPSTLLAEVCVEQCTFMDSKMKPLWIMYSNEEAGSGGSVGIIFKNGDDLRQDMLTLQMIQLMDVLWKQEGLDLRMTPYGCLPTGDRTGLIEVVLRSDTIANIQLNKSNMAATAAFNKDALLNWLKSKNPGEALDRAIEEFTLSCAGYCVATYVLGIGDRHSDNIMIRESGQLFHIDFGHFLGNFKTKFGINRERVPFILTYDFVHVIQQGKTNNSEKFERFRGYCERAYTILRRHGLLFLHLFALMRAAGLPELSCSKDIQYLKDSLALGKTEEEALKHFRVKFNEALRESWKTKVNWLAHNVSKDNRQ
# p110-δ, sequence (P27986 whole entry partner): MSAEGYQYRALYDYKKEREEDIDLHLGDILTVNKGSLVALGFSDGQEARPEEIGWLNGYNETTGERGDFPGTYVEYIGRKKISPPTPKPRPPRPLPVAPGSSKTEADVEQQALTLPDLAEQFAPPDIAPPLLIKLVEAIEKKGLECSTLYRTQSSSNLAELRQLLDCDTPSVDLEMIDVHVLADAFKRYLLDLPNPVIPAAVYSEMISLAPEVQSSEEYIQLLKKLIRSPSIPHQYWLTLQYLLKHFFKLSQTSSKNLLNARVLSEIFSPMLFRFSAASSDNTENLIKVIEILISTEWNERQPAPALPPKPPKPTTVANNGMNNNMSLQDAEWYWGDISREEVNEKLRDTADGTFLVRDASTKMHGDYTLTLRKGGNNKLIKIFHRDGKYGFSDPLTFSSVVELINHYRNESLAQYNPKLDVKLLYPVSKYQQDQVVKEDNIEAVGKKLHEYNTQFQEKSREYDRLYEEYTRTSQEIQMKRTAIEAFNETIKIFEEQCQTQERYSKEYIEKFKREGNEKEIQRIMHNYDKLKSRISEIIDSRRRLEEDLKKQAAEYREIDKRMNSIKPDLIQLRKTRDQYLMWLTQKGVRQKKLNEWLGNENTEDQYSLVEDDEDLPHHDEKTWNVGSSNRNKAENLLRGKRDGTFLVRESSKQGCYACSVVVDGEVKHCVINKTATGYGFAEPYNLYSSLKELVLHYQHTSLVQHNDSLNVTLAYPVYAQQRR
# p110-γ = p110-γ (Homo sapiens, UniProt P48736); design: method as in PMID 20959606; key to the marks not given beside the values; details: Class I PI3Ks; cited from earlier work
# ERBB4 = ERBB4 (Homo sapiens, UniProt Q15303); design: method as in PMID 20959606; details: Other Clinically-relevant Kinases; cited from earlier work
# p110-α = p110-α (Homo sapiens, UniProt P42336); design: method as in PMID 20959606; details: Class I PI3Ks; cited from earlier work
# ERBB2 = ERBB2 (Homo sapiens, UniProt P04626); design: method as in PMID 20959606; details: Other Clinically-relevant Kinases; cited from earlier work
# ERBB2, sequence (P04626 23-1255): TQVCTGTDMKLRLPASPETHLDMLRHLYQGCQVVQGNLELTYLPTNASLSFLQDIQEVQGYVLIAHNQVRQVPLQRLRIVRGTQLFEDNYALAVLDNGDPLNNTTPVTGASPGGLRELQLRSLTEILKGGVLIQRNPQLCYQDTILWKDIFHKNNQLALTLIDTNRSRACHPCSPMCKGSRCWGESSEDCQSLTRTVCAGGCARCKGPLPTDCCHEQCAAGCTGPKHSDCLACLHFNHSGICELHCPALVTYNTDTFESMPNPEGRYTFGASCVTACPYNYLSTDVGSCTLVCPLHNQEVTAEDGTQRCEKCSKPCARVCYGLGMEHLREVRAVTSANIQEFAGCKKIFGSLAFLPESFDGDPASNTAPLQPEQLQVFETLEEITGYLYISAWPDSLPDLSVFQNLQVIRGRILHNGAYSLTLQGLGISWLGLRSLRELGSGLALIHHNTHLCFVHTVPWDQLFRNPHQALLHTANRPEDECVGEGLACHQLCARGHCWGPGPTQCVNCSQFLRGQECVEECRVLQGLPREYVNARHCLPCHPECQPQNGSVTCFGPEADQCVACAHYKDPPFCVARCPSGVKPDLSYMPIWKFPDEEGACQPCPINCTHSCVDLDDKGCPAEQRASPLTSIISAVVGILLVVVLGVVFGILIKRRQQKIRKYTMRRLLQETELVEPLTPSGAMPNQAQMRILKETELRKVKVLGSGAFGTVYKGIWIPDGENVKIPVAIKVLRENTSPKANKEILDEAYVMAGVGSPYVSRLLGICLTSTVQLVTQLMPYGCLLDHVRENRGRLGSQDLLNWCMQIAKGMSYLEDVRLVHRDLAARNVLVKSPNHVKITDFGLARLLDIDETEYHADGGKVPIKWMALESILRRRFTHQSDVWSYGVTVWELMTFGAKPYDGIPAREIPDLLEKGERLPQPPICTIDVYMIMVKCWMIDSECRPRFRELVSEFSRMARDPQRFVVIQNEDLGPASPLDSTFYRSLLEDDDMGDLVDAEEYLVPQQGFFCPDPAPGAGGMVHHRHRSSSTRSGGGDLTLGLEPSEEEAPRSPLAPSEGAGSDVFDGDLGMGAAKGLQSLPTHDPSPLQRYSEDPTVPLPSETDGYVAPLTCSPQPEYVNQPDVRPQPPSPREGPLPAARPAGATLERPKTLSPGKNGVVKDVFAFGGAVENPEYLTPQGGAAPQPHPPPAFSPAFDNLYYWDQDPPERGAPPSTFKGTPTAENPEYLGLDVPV
# PKCγ = system: PKCγ; design: method as in PMID 20959606; details: cited from earlier work
# PKC2-α = PKC2-α (Homo sapiens, UniProt O00443); design: method as in PMID 20959606; details: Class II PI3Ks; cited from earlier work
# MM.1S myeloma cells = experiment: Mouse xenograft model of myeloma; assay type: in vivo, mice; details: subcutaneous myeloma xenograft; intravenous; bortezomib 0.5 mg/kg, DT97 10 mg/kg
# Experimental: Five week old nude mice flanks are injected subcutaneously with MM.1S myeloma cells. Tumors formed within two weeks and mice were then treated intravenously with vehicle, bortezomib, DT97 or both bortezomib and DT97.
# Subcutaneous tumors were generated after injection of myeloma cells. […] Vehicle or bortezomib was administered on days 1, 4, 8 and 11. Mice were euthanized when tumors reached 2 cm^3, became ulcerated or elicited neurologic or musculoskeletal complications that limited mobility and feeding. Survival and tumor growth were evaluated from the first day of treatment. Shown is the average of replicate measurements. […] Kaplan-Meier survival curves comparison of NOD. SCID mice after subcutaneous injection of parental myeloma cells treated with vehicle, DT97, bortezomib or both.
# Mice received intravenous injection of either vehicle (PBS in 10% DMSO); bortezomib (0.5 mg/kg), DT97 (10 mg/kg) or both bortezomib and DT97. Tumor volume (TV) measurements were made using a vernier caliper and calculated using the formula: TV = 0.5 (a × b^2) where a is the long diameter and b the short diameter. Mice were euthanized when tumors reached 2 cm^3, became ulcerated or elicited neurologic or musculoskeletal complications that limited mobility and feeding.
# In vivo statistical tests were performed using the 2-tailed Student t test.
# p110-β, sequence (P42338 whole entry): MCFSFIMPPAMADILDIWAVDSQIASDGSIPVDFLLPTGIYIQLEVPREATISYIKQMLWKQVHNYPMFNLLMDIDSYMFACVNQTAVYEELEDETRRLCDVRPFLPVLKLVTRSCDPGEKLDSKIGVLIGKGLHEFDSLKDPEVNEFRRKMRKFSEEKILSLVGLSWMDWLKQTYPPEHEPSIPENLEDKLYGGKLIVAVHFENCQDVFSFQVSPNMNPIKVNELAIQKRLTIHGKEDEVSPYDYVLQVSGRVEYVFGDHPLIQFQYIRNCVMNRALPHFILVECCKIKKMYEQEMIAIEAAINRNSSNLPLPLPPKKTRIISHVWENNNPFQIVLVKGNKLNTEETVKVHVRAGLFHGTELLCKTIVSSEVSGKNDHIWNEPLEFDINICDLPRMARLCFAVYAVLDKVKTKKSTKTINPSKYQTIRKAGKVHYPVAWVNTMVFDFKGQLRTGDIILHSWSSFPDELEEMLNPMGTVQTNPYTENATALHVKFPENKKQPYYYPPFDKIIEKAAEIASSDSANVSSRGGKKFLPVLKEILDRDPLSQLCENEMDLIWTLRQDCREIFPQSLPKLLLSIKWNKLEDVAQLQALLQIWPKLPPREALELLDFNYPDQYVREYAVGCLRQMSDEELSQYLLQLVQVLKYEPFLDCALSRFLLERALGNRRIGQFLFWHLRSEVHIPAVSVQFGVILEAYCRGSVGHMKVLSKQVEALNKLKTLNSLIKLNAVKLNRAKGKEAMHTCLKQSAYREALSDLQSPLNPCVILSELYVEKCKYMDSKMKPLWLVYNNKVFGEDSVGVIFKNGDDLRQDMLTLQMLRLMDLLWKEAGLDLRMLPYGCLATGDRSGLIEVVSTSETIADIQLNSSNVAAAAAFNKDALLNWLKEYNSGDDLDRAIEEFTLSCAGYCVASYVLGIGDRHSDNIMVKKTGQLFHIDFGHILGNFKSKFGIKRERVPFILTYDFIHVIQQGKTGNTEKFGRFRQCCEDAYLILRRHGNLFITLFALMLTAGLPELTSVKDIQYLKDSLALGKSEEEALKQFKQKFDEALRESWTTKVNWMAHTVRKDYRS
# p110-β, sequence (P27986 whole entry partner): as the sequence (P27986 whole entry partner) above
SMILES,Inhibitory profile (kinase inhibition) (PDGFR),Inhibitory profile (kinase inhibition) (p110-β),viability (CLL cells),Inhibitory profile (kinase inhibition) (p110-δ),Inhibitory profile (kinase inhibition) (p110-γ),Inhibitory profile (kinase inhibition) (ERBB4),Inhibitory profile (kinase inhibition) (p110-α),Inhibitory profile (kinase inhibition) (ERBB2),Inhibitory profile (kinase inhibition) (PKCγ),Inhibitory profile (kinase inhibition) (PKC2-α),overall survival (OS) (MM.1S myeloma cells) [days],tumor growth (MM.1S myeloma cells)
"CC[C@H](Nc1ncnc2[nH]cnc12)c1nc2cccc(F)c2c(=O)n1-c1ccccc1 [Idelalisib, idelalisib]",none,+,more effectively reduced the viability,+++,++,none,+,none,none,none,,
CC(C)C[C@H](NC(=O)[C@H](Cc1ccccc1)NC(=O)c1cnccn1)B(O)O [bortezomib],,,,,,,,,,,20,dramatically reduced tumor growth
